Laboratory results reported in patent US20240382475A1, “Quinazoline Derivative, Or Preparation Method Therefor And Use Thereof” (Zhejiang Hisun Pharmaceutical Co., Ltd., priority 2021, published 2024).
Where two headings read alike, the source gives them in different places.

Assay: Pharmacokinetic evaluation in SD rats
Assay type: in vivo
Conditions: male, rat, plasma; for AUC(0-t): read-out: Area under curve AUC0-t; for half-life: read-out: Half-life T1/2 (converted)
Procedure: SD rats were used as the test animals, and LC/MS/MS was used to determine the drug concentrations at different moments in plasma after compound 11 of the present invention was administered to the rats through intravenous injection or intragastric administration. The pharmacokinetic characteristics of compound 11 of the present invention in SD rats were studied.
SD rats, male, 195-235 g, 6-8 weeks old, were purchased from Vital River Laboratory Animal Technology Co., Ltd.
Intravenous injection group: an appropriate amount of the compound to be tested was weighed, and an appropriate amount of DMA:30% Solutol HS-15:Saline=5:5:90 (v/v/v) was added respectively, vortexed, and a solution with a final concentration of 0.2 mg/mL was prepared.
Intragastric administration group: an appropriate amount of the compound to be tested was weighed, and an appropriate amount of DMA:30% Solutol HS-15:Saline=5:5:90 (v/v/v) was added, vortexed, and a solution with a final concentration of 1 mg/mL was prepared.
The SD rats were divided into intravenous injection group (3 rats/group) and intragastric administration group (3 rats/group) according to the compound to be tested.
Intravenous injection group: rats were fasted overnight and then administered by intravenous injection (administration dosage was 1 mg/kg, and administration volume was 5 mL/kg), and ate 4 hours after administration.
Intragastric administration group: rats were fasted overnight followed by intragastric administration (administration dosage was 10 mg/kg, and administration volume was 10 mL/kg), and ate 4 hours after administration.
(§1) Intravenous injection group: about 150 μL of blood was collected through jugular vein into EDTA-K2 anticoagulant tubes 0.083 hour, 0.25 hour, 0.5 hour, 1 hour, 2 hours, 4 hours, 8 hours and 24 hours after administration. The collected blood sample was placed on ice, and plasma was separated by centrifugation (centrifugation condition: 1500 g, 10 minutes). The collected plasma sample was stored at −40˜−20° C. before analysis.
as §1, with “Intragastric administration group:” for “Intravenous injection group:”, “about 100” for “about 150”, “tubes” for “tubes 0.083 hour,”
LC-MS/MS was used to determine the content of the compound to be tested in rat plasma after intravenous injection and intragastric administration of the compound.

What does the source list for `COc1cc2nc(C)nc(N[C@H](C)c3cccc(C#N)c3C)c2cc1N1CCC(C)(O)CC1` [Compound 11, (R)-3-(1-((6-(4-hydroxy-4-methylpiperidin-1-yl)-7-methoxy-2-methylquinazolin-4-yl)amino)ethyl)-2-methylbenzonitrile]?
bioavailability (Oral 10 mg/kg vs injection 1 mg/kg, read-out: Bioavailability F): 79.4%; AUC(0-t) (Oral 10 mg/kg): 4860 ± 1670 ng·h/mL; half-life (Oral 10 mg/kg): 2.41 ± 2.11 h; Cmax (Oral 10 mg/kg, read-out: Plasma concentration Cmax): 1150 ± 349 ng/mL; AUC(0-t) (iv, injection 1 mg/kg): 612 ± 126 ng·h/mL; half-life (iv, injection 1 mg/kg): 0.73 ± 0.32 h
